Assays:
[1] = Cyclization equilibrium, ratio of [cyclic]:[open] forms; format: physicochemical; conditions: at equilibrium at pH 7.0
Source text: In this example, Xaa-boro-Ala analogs containing bulky R substituent will be constructed to prevent cyclization and increase biological activity. […] The open, active, inhibitory chain species is favored at low pH while the cyclized structure is favored at high pH. Also, the reaction is fully reversible: the open chain becomes predominate at low pH. The open chain to cyclic species reaction involves a trans to cis isomerization of the proline and the formation of a new N—B bond. […] This means that less than 1% Pro-boroPro and less than 0.1% of Val-boroPro exists as the open chain, inhibitory species, at equilibrium at pH 7.0.
One feature of the present invention relates to the equilibrium constant for cyclization. […] In addition, the cis-trans isomerization rate, and therefore the rates of cyclization and uncyclization, are also much faster for compounds of the present invention. This feature is attributed by the inventors to a bulky substituent effect, e.g. where R in FIG. 8 represents a cyclohexyl.

DPPIV [2] = biological target: T1, DPPIV (Rattus norvegicus, UniProt P14740); test: DPPIV assays on serum samples from treated rats; format: in vivo; conditions: 1 hour after treatment versus before
T1 construct: from tissue; host or cells: rat serum
T1 sequence (P14740 37-767 limits assumed): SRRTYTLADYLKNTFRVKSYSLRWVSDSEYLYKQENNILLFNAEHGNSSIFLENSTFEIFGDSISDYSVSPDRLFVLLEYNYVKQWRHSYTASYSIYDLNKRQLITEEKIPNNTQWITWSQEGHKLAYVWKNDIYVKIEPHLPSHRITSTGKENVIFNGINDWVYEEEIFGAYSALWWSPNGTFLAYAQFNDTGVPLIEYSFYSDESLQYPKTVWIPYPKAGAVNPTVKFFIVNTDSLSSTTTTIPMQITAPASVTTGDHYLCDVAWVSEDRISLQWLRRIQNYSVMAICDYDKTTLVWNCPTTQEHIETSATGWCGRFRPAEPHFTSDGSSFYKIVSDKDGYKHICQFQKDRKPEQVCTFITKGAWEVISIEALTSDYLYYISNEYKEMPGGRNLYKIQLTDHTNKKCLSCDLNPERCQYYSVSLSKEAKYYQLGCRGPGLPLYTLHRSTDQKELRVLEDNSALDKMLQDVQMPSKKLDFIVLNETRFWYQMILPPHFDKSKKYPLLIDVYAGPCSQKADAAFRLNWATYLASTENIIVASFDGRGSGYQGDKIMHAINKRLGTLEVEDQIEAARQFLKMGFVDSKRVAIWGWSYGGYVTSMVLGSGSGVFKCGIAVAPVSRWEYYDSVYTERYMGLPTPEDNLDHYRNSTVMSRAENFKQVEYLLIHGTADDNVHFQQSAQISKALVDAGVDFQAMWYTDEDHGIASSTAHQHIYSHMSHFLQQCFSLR
Experimental: Four rats were used in this experiment: two females (#3 and #9) and two males (#10 and #11). Blood and plasma samples were collected from rats 1 hour after being treated with Cyclohexylglycine-boroAla. The collected serum samples were evaluated for DPPIV activity of Cyclohexylglycine-boroAla as follows: • 2 mg of Ala-Pro-paranitroanalide (substrate) was dissolved in 20 ml 0.1 M HEPES pH 8, 0.14 M NaCl (buffer). • Serum samples were diluted into substrate solution in the wells of a microtiter plate. For each sample, 10 uL of serum was diluted into 150 μL of substrate. • A reading of the A410 in each well was recorded immediately after the dilution of serum into substrate, and again after approximately 1 hour. The time of data acquisition for each reading is recorded in the data file by the microplate reader software.
The rate of absorbance change was obtained by subtracting the first reading from the second and dividing by the reaction time to give DeltaA410/hr. The DPPIV activity was plotted in units of DeltaA410 hr^−1 μL^−1.

zucker obese rats = test: Oral glucose tolerance test (oral glucose challenge) in zucker rats; format: in vivo, rat; conditions: oral 0.035 mg/kg or 0.35 mg/kg, oral glucose tolerance test within an hour, saline control
Experimental: In these “acute” experiments zucker obese and zucker lean rats were orally administered either 0.035 mg/kg (low dose) or 0.35 mg/kg (high dose) of cyclohexyl-gly boro ala and then subjected to an oral glucose tolerance test within an hour. Each set of experiments was also performed using saline as a control.

DPPIV [3] = biological target: DPPIV (Homo sapiens, UniProt P27487); test: Inhibitor inactivation at pH 8 (time course, DPPIV inhibition read-out); format: biochemical; conditions: pre-incubated at pH 8 (7.5-8) for 0, 60, 120, 180 minutes; compared with His-bAla, Ala-bAla, Phg-bAla
DPPIV (Homo sapiens, UniProt P27487), sequence (P27487 whole entry, species assumed): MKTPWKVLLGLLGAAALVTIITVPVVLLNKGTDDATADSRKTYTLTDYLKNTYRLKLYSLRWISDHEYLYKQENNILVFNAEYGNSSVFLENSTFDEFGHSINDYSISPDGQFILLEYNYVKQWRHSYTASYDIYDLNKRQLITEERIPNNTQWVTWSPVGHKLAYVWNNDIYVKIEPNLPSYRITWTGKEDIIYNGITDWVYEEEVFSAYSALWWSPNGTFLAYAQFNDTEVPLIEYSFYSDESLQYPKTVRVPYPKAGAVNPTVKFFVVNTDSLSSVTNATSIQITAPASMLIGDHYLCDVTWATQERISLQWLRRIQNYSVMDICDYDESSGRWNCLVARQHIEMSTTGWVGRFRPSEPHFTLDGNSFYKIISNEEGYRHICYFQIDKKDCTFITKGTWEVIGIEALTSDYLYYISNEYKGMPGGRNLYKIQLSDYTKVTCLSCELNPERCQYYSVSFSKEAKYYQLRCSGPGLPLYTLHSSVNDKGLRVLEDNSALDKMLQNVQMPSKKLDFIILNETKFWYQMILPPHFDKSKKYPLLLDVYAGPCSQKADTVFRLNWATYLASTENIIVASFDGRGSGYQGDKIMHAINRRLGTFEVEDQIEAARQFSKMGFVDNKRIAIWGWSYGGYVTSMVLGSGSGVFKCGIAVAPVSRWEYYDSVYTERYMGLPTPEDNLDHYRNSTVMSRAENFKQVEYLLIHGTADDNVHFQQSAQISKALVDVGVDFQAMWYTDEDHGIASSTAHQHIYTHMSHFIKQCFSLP
Experimental: In this experiment stock solutions of inhibitors (His-bAla, Ala-bAla, Phg-bAla and Cyclohexylglycine-bAla) were prepared at pH 1-2. These stock solutions were pre-incubated at pH 8 as follows: first, 1:10 dilutions into a buffer (0.1 M HEPES pH 8, 0.14 M NaCl) were performed; secondly, the pH was measured after dilution and varied for different inhibitors between 7.5 and 8; and thirdly, incubations at this pH were performed for 0, 60, 120, 180 minutes. Following incubation, 1:10 serial dilutions of inhibitors in buffer and 1:10 dilution of inhibitors into Enzyme (DPPIV) in buffer were made. The inhibitors were pre-incubated with enzyme for 10 minutes to account for slow binding and substrate (H-Ala-Pro-paranitoranalide) was added at a concentration of approx.=KM (17 μM). Absorbances at 410 nm were recorded for all inhibitors after 30 minutes.

[4] = pH around neutral, due to cyclization, inventors' previous work; cited from earlier work
soluble DPIV = soluble DPIV (Homo sapiens, UniProt P27487); conditions: inventors' previous work; cited from earlier work
soluble DPIV, sequence (P27487 39-766 limits assumed): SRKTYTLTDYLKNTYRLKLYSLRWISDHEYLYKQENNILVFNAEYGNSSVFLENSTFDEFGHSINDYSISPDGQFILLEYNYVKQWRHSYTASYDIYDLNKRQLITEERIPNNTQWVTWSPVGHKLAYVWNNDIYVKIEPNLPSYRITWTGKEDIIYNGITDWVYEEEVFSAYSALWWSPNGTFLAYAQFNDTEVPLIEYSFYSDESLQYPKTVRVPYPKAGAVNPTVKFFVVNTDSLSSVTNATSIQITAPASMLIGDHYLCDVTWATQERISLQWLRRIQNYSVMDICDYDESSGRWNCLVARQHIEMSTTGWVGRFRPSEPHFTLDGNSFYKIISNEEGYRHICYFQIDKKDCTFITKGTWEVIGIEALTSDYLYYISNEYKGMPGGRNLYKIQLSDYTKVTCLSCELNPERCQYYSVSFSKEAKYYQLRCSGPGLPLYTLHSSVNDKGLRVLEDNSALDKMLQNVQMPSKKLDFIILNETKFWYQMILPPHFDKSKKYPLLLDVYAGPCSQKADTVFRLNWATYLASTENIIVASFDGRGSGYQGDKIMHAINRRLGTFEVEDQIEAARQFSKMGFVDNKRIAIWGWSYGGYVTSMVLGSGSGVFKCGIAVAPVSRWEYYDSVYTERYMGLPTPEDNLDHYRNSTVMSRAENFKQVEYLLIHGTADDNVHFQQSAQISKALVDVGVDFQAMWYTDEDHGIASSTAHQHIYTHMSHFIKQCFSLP

## O=C(C1CCCN1)N1CCCC1B(O)O (centres unmarked) [Pro-boroPro]
[1]
  fraction existing as the open chain, inhibitory species: less than 1%

## CC(C)[C@H](N)C(=O)N1CCC[C@H]1B(O)O [Val-boroPro]
[1]
  fraction existing as the open chain, inhibitory species: less than 0.1%

## CC(NC(=O)C(N)C1CCCCC1)B(O)O (centres unmarked) [Cyclohexylglycine-boroAla, Cyclohexylglycine boroAla]
DPPIV [2]
  DPPIV enzyme activity in serum: significantly decreased
Zucker obese rats
  blood sugar in oral glucose challenge after oral administration: orally active and clearly lowers blood sugar
DPPIV [3]
  pH-time dependant inhibition (inactivation at pH 8): does not show significant pH-time dependant inhibition

## CC(N)C(=O)N1CCCC1B(O)O [L-Ala-D,L-boroPro]
[4]
  loss of inhibitory activity in aqueous solution: lost some of their inhibitory activity rapidly

## O=C(C1CCCN1)N1CCCC1B(O)O [L-Pro-D,L-boroPro]
Soluble DPIV
  inhibition of the catalytic activity of soluble DPIV: potent inhibitors
[4]
  loss of inhibitory activity in aqueous solution: lost some of their inhibitory activity rapidly
